Measurements: US7994123B2, “Hybrid proteins with ErbB4 extracellular domain and neuregulin heparin-binding domain for targeting” (Wayne State University, priority 2004, dated 2011)

Key:
[1] = tested on: erbB receptor phosphorylation (p185) in MCF10CA1 cells; test: p185 receptor phosphorylation western blot, MCF10CA1; assay type: cell-based, human; conditions: for exogenous NRG-induced p185 erbB receptor phosphorylation: AG1478 or 100 μg/ml Trastuzumab (24 h pre-treatment)
Procedure: Western blots and L6 muscle assays: P185 receptor phosphorylation of the three cell lines was measured by phosphotyrosine western blots after NRG treatment for 30 min on 3 day old cultures as described in WO 03/012045 and Li Q & Loeb J A (2001) J Biol Chem; 276:38068-75. […] The media was discarded and phosphotyrosine western blots were performed as above. The membranes were stripped and reprobed with polyclonal rabbit erbB2 for the detection of overall erbB2 protein that was used for quantitation.
(§1) After 2 days, the Optimem I conditioned media was concentrated by Centricon at 4° C. 40 μl of IgB4 conditioned media or 10 μM of tyrosine kinase inhibitor AG1478 were combined with […] 1 nM NRG in MCF10A/AT media for 15 min at room temperature before being added to MCF10CA1 cells for 30 min treatment. […] The amount of each antagonist was determined empirically based on its ability to block NRG-induced activation of L6 cells.

[2] = tested on: MCF10CA1 human breast cancer cells; test: Cell proliferation assay, MCF10CA1; assay type: cell-based; conditions: IgB4 conditioned media, 10 μM AG1478 or 100 μg/ml Trastuzumab; for MCF10CA1 proliferation with exogenous NRG: 1 nM NRG
Procedure: Cell proliferation assays: All three breast epithelial cell lines were plated at 5000 cells/well in 48 well plates in regular MCF10A/AT or MCF10CA1 media. After incubation for 3 days, 1 nM NRG in MCF10A/AT media or just MCF10A/AT media alone were applied to the cells for another 24 hours followed by washing them with culture media and then counting cell numbers using an hemocytometer on the 4th, 5th, 6th, 7th and 8th day.
as §1

[3] = tested on: erbB phosphorylation (p185) in L6 muscle cells; test: NRG1-induced erbB phosphorylation after reducing endogenous HSPG sulfation; assay type: cell-based; conditions: chlorate 48 hours
Procedure: Cell Cultures and Western Blots for p185 phosphorylation—L6 Cells were used to quantify erbB receptor phosphotyrosine (p185) as described (WO 03/012045; Li & Loeb, supra). Cells were plated at 50,000 cells/well and grown for 8 days. Chlorate was filter sterilized and incubated with L6 cells for 2 days prior to the assay. Inhibition assays of p185 were performed by pre-incubating 75 pM of IgEGF NRG1 and various concentrations of the heparins at room temp for 20 minutes. 150 μL of this mixture was then applied to 8 day-old L6 cells for 45 minutes at 37° C. in […]. The medium was aspirated, and the cells were solubilized in 50 μL sample buffer and boiled for 5 minutes as described previously (WO 03/012045; Li & Loeb, supra) 15 μL of this was resolved on a 5% denaturing polyacrylamide gel. Phosphorylated forms of the erbB receptors (p185) were detected by western blot analysis using the phosphotyrosine monoclonal antibody 4G10 (Upstate) and then verified and quantified by reprobing with a mixture of antibodies against erbB2 (Neomarkers Ab-17) and erbB3 (Neomarkers Ab-6). Quantitation was performed by determining the ratio of p185/(erbB2+erbB3) using Metamorph Imaging System (Universal Imaging Corp) on non-saturated images as described (Esper, R M & Loeb, J A (2004) J Neurosci 24:6218-27) […]

[4] = tested on: NRG1-induced erbB receptor phosphorylation (p185) in L6 cells; test: Inhibition of NRG1-induced p185 by heparins in L6 cells; assay type: cell-based; conditions: for inhibition of NRG1-induced erbB receptor phosphorylation (p185): 75 pM IgEGF NRG1 pre-incubated with heparin 20 minutes, L6 cells 45 minutes
Procedure: Cell Cultures and Western Blots for p185 phosphorylation—L6 Cells were used to quantify erbB receptor phosphotyrosine (p185) as described (WO 03/012045; Li & Loeb, supra). Cells were plated at 50,000 cells/well and grown for 8 days. Chlorate was filter sterilized and incubated with L6 cells for 2 days prior to the assay. Inhibition assays of p185 were performed by pre-incubating 75 pM of IgEGF NRG1 and various concentrations of the heparins at room temp for 20 minutes. 150 μL of this mixture was then applied to 8 day-old L6 cells for 45 minutes at 37° C. in […]. The medium was aspirated, and the cells were solubilized in 50 μL sample buffer and boiled for 5 minutes as described previously (WO 03/012045; Li & Loeb, supra) 15 μL of this was resolved on a 5% denaturing polyacrylamide gel. Phosphorylated forms of the erbB receptors (p185) were detected by western blot analysis using the phosphotyrosine monoclonal antibody 4G10 (Upstate) and then verified and quantified by reprobing with a mixture of antibodies against erbB2 (Neomarkers Ab-17) and erbB3 (Neomarkers Ab-6). Quantitation was performed by determining the ratio of p185/(erbB2+erbB3) using Metamorph Imaging System (Universal Imaging Corp) on non-saturated images as described (Esper, R M & Loeb, J A (2004) J Neurosci 24:6218-27)

[5] = target: T1, NRG1 (Homo sapiens, UniProt Q02297); test: Gel mobility shift assay (GMSA); assay type: binding; conditions: 35 ng NRG1, 20 minutes; heparins at 0, 1, 10, 100 μg/ml
T1 construct: the intact IgEGF form of NRG1 corresponds to amino acids 14-246; purchased R&D (Minneapolis Minn.)
T1 sequence (Q02297 14-246 isoform Q02297-6): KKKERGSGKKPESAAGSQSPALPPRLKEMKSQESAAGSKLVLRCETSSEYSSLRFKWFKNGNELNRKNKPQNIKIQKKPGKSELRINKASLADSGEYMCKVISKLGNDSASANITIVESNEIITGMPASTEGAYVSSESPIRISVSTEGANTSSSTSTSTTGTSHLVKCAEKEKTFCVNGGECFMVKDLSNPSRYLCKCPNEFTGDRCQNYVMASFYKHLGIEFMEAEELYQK
Procedure: Gel Mobility Shift Assay (GMSA)—NRG1 alone, or NRG1 plus various heparins at various concentrations were incubated with binding buffer (2.7 mM KCl, 4.3 mM Na2HPO4, 10 mM MgCl2, 1.4 mM KH2PO4, 12% glycerol, 1 mM DTT.) for 20 minutes and run on a 6% (29:1 acrylamide:bis) non-denaturing gel (10 mM Tris (pH 7.4), 1 mM EDTA) for 20 minutes at 200 V as described (Wu, Z L et al. (2002) FASEB J 16, 539-45; Wu, Z L et al. (2003) J Biol Chem 278:17121-29). […] However, band resolution was sharper at pH 8.0 and was therefore used for our studies here. Protein was transferred to a polyvinylidene fluoride membrane (Millipore corp.) for 1 hr at 100V. NRG1 bands were detected by western blot analysis using a polyclonal rabbit antiserum (AD03) developed against the IgEGF polypeptide (Assay Designs Inc.). The filters were then probed with a goat anti-rabbit antibody coupled to peroxidase (Chemicon), exposed to X-blue film (Eastman Kodak Co.) after treatment with chemiluminescence reagents, and bands were quantified as above.

[6] = 1 nM NRG, 30 min, IgB4 conditioned media

COc1cc2ncnc(Nc3cccc(Cl)c3)c2cc1OC [AG1478, reference compound]
EGF receptor phosphorylation (lower band) ([1]; 1 nM NRG, 30 min): reducing both p185 (erbB2/3, upper band) and EGF receptor phosphorylation (lower band) in a dose dependent manner
exogenous NRG-induced p185 erbB receptor phosphorylation [1, 6]: blocked NRG-induced erbB signaling
MCF10CA1 proliferation with exogenous NRG [2]: reduced the growth rate
MCF10CA1 growth rate without exogenous NRG [2]: reduced the growth rate

[O-][Cl+2]([O-])O [chlorate, Sodium chlorate]
reduction of receptor phosphorylation, EGF form ([3]; EGF form lacking the heparin-binding domain): no reduction
reduction of receptor phosphorylation, IgEGF NRG1 ([3]; full-length heparin-binding NRG1 (IgEGF)): 53%

De-2O sulfated heparin
inhibition of NRG1-induced erbB receptor phosphorylation (p185) [4]: intermediate effects
shift of NRG1 mobility (NRG1 binding) [5]: shifted NRG1 better than De-N sulfated heparin but less than fully sulfated heparin

De-6O sulfated heparin
inhibition of NRG1-induced erbB receptor phosphorylation (p185) [4]: intermediate effects
shift of NRG1 mobility (NRG1 binding) [5]: shifted NRG1 better than De-N sulfated heparin but less than fully sulfated heparin

De-N sulfated heparin
inhibition of NRG1-induced erbB receptor phosphorylation (p185) [4]: little inhibition even at 100 μg/ml
effect on receptor phosphorylation at low concentration ([4]; 1 μg/ml): modest stimulatory effect
shift of NRG1 mobility (NRG1 binding) [5]: did not shift NRG1

heparin
inhibition of NRG1-induced erbB receptor phosphorylation (p185) [4]: inhibited by fully-sulfated heparin in a dose-dependent manner
shift of NRG1 mobility (NRG1 binding) [5]: shift NRG1 in a dose-dependent manner

B1: IgB4: soluble NRG antagonist: ECD of erbB4 receptor fused to Fc portion of human IgG1 (protein)
chain: QSVCAGTENKLSSLSDLEQQYRALRKYYENCEVVMGNLEITSIEHNRDLSFLRSVREVTGYVLVALNQFRYLPLENLRIIRGTKLYEDRYALAIFLNYRKDGNFGLQELGLKNLTEILNGGVYVDQNKFLCYADTIHWQDIVRNPWPSNLTLVSTNGSSGCGRCHKSCTGRCWGPTENHCQTLTRTVCAEQCDGRCYGPYVSDCCHRECAGGCSGPKDTDCFACMNFNDSGACVTQCPQTFVYNPTTFQLEHNFNAKYTYGAFCVKKCPHNFVVDSSSCVRACPSSKMEVEENGIKMCKPCTDICPKACDGIGTGSLMSAQTVDSSNIDKFINCTKINGNLIFLVTGIHGDPYNAIEAIDPEKLNVFRTVREITGFLNIQSWPPNMTDFSVFSNLVTIGGRVLYSGLSLLILKQQGITSLQFQSLKEISAGNIYITDNSNLCYYHTINWTTLFSTINQRIVIRDNRKAENCTAEGMVCNHLCSSDGCWGPGPDQCLSCRRFSRGRICIESCNLYDGEFREFENGSICVECDPQCEKMEDGLLTCHGPGPDNCTKCSHFKDGPNCVEKCPDGLQGANSFIFKYADPDRECHPCHPNCTQGCNGPTSHDCIYYPWTGHSTLPQHARTP
modifications: left off: a dimerising Fc or GST
notes: soluble NRG antagonist: ECD of erbB4 receptor fused to Fc portion of human IgG1
exogenous NRG-induced p185 erbB receptor phosphorylation [1, 6]: effectively blocked
basal p185 erbB receptor phosphorylation ([1]; no exogenous NRG, IgB4 conditioned media, 10 μM AG1478 or 100 μg/ml Trastuzumab (24 h pre-treatment)): effectively blocked
MCF10CA1 proliferation with exogenous NRG [2]: blocked MCF10CAL cell proliferation induced by exogenous NRG treatment
MCF10CA1 growth rate without exogenous NRG [2]: significantly reduced the baseline growth rate
